Five molecules from patent publication US7012067B2, “Blood lipid ameliorant composition” (Sankyo Company, Limited, priority 2000, dated 2006) can be followed below.

What all share (assay type): in vivo
One data set deals with blood free fatty acids. Kind of data set: Blood free fatty acid levels in dogs (ACS-ACOD methods). To be noted: beagle dogs, oral once daily, relative to pre-dosing level (100), mean of 5, simvastatin 1 mg/kg. From the text:
(§1) Beagle dogs aged 5 months were purchased from Covance Research Products Inc. and used after 1 month of quarantine and acclimatisaton breeding.
(§2) The required amounts of simvastatin or each component of the combination drug calculated from the body weight of each dog were weighed and filled in a gelatin capsule (½ ounce) purchased from TORPAC Inc. Capsules filled with simvastatin were stocked in a refrigerator and those filled with combination drugs stocked at room temperature until use.
(§3) The combination drugs were filled in identical gelatin capsules.
(§4) Simvastatin or combination drug capsules were forcibly orally administered to each of the test animals once daily between 9:00 and 12:30. Animals were fasted for 2 or 3 hr prior to administration of the capsules.
(§5) The administration period was 11 successive days.
(§6) Blood (10 mL) was collected from the superficial radial vein 2 or 1 weeks prior to administration and 4, 8, and 12 days after administration was started. Animals were fasted for approximately 18 hr prior to blood collection. Collected blood was placed in a test tube and left at room temperature for 0.5-1 hr, before being centrifuged (3,000 rpm for 10 min). The obtained serum was used for assays of blood levels of lipid peroxides, total cholesterol, triglycerides, free fatty acids, GOT, and CPK according to Yagi's methods, CEH-COD-POD methods, GK-GPO-POD methods, ACS-ACOD methods, UV-rate methods, and UV-rate methods, respectively. (For ACS-ACOD (Acyl-CoA synthetase-Acyl-CoA oxidase peroxidase) methods, CEH-COD-POD (Cholesterol ester hydrolase-Cholesteroloxidase-Peroxidase) methods, Yagis methods and GK-GPO-POD (Glycerokinase-Glycerolphosphateoxidase-Peroxidase)methods, see: Kanai's Manual of Clinical Laboratory Medicine; 31st Edition (September 1998), Kanehara & Co., Ltd.)
(§7) All these levels were determined using a fluorometer (Hitachi, Ltd., F3000), a full automatic analyzer (Monarch, Instrumentation Laboratory), and an automatic analyzer (7170, Hitachi, Ltd.).
(§8) All these values in dogs treated with one of the drugs described above were converted to their relative ratios against their averaged pre-dosing levels (100) determined 2 and 1 weeks prior to drug administration. The averaged value in each group was obtained from 5 animals per group.

In another data set the test system is CPK. Kind of data set: Serum CPK levels in dogs (UV-rate methods). To be noted: beagle dogs, oral once daily, relative to pre-dosing level (100), mean of 5, simvastatin 1 mg/kg, ascorbic acid 500 mg/kg.
Description: as §1, §2, §3, §4, §5
(§9) Blood (10 mL) was collected from the superficial radial vein 2 or 1 weeks prior to administration and 4, 8, and 12 days after administration was started. Animals were fasted for approximately 18 hr prior to blood collection. Collected blood was placed in a test tube and left at room temperature for 0.5-1 hr, before being centrifuged (3,000 rpm for 10 min). The obtained serum was used for assays of blood levels of lipid peroxides, total cholesterol, triglycerides, free fatty acids, GOT, and CPK according to Yagi's methods, CEH-COD-POD methods, GK-GPO-POD methods, ACS-ACOD methods, UV-rate methods, and UV-rate methods, respectively.
as §8

A further data set relates to blood lipid peroxides. Briefly: Blood lipid peroxide levels in dogs (Yagi's methods). To be noted: beagle dogs, oral once daily, relative to pre-dosing level (100), mean of 5, simvastatin 1 mg/kg.
Description: as §1, §2, §3, §4, §5, §6, §7, §8

In another data set the test system is GOT. Briefly: Serum GOT levels in dogs (UV-rate methods). To be noted: beagle dogs, oral once daily, relative to pre-dosing level (100), mean of 5, simvastatin 1 mg/kg, Tocoph 300 mg/kg.
Description: as §1, §2, §3, §4, §5, §9, §8

A further data set has as its system blood triglycerides. Briefly: Blood triglyceride levels in dogs (GK-GPO-POD methods). Conditions: beagle dogs, oral once daily, relative to pre-dosing level (100), mean of 5.
Description: as §1, §2, §3, §4, §5, §6, §7, §8

In the next data set the test system is blood total cholesterol. Kind of data set: Blood total cholesterol levels in dogs (CEH-COD-POD methods). Conditions: beagle dogs, oral once daily, relative to pre-dosing level (100), mean of 5, simvastatin 1 mg/kg, taurine 1000 mg/kg.
Description: as §1, §2, §3, §4, §5, §6, §7, §8

Where [1] appears, read: simvastatin 1 mg/kg, Tocoph 300 mg/kg.
The mark [2] stands for this setting: simvastatin 1 mg/kg (dose cell of simvastatin alone empty), taurine 1000 mg/kg.
Setting [3] is: simvastatin 1 mg/kg, pantethine 300 mg/kg.

On to `O=C1O[C@H]([C@@H](O)CO)C(O)=C1O` [Ascorbic acid, ascorbic acid], for which, in the data set on blood free fatty acids (ascorbic acid 500 mg/kg), the “Blood FFA Levels after administration, 4 days” value (“Blood FFA Levels … 4 days” for short) came to 87.4; the “Blood FFA Levels after administration, 8 days” value (shortened to “Blood FFA Levels … 8 days”) is 109.6; the “Blood FFA Levels after administration, 12 days” value (“Blood FFA Levels … 12 days” below) was 97.8. In the data set on CPK, the “CPK Levels after administration, 4 days” value turned out to be 98.3; the “CPK Levels after administration, 8 days” value was determined as 95.1; the “CPK Levels after administration, 12 days” value is recorded as 91.5. Besides, in the data set with blood lipid peroxides (ascorbic acid 500 mg/kg), the “Blood Lipid Peroxide Levels after administration, 4 days” value (shortened to “Blood Lipid Peroxide Levels … 4 days”) is 87.6; the “Blood Lipid Peroxide Levels after administration, 8 days” value (from here on “Blood Lipid Peroxide Levels … 8 days”) is listed as 89.9; the “Blood Lipid Peroxide Levels after administration, 12 days” value (“Blood Lipid Peroxide Levels … 12 days” for short) is recorded as 94.4.
In the case of `CC(=O)Oc1c(C)c(C)c2c(c1C)CC[C@@](C)(CCC[C@H](C)CCC[C@H](C)CCCC(C)C)O2` [Tocoph, d-α-tocopherol acetate], in the data set on blood free fatty acids (Tocoph 300 mg/kg), the “Blood FFA Levels … 4 days” value is reported as 115.4; the “Blood FFA Levels … 8 days” value amounted to 103.1; the “Blood FFA Levels … 12 days” value is given as 86.2. In the data set on GOT, the “GOT Levels after administration, 4 days” value came out at 114.9; the “GOT Levels after administration, 8 days” value is 139.7; the “GOT Levels after administration, 12 days” value is 109.1. Moreover, in the data set with blood triglycerides (setting [1]), the “Blood Triglyceride Levels after administration, 4 days” value (from here on “Blood Triglyceride Levels … 4 days”) stood at 106.3; the “Blood Triglyceride Levels after administration, 8 days” value (“Blood Triglyceride Levels … 8 days” for short) came out at 119.0; the “Blood Triglyceride Levels after administration, 12 days” value (“Blood Triglyceride Levels … 12 days” for short) was determined as 75.9.
Regarding `NCCS(=O)(=O)O` [Taurine, 2-aminoethanesulfonic acid], in the data set on blood total cholesterol, the “Blood Total Cholesterol Levels after administration, 4 days” value was found to be 95.9; the “Blood Total Cholesterol Levels after administration, 8 days” value is 90.2; the “Blood Total Cholesterol Levels after administration, 12 days” value was determined as 87.2. For the same molecule, in the data set on blood lipid peroxides (taurine 1000 mg/kg), the “Blood Lipid Peroxide Levels … 4 days” value is on record as 95.8; the “Blood Lipid Peroxide Levels … 8 days” value was determined as 93.8; the “Blood Lipid Peroxide Levels … 12 days” value was found to be 87.5. For the same molecule, in the data set with blood triglycerides (setting [2]), the “Blood Triglyceride Levels … 4 days” value turned out to be 98.6; the “Blood Triglyceride Levels … 8 days” value turned out to be 95.8; the “Blood Triglyceride Levels … 12 days” value is 80.8.
On to `CCC(C)(C)C(=O)O[C@H]1C[C@@H](C)C=C2C=C[C@H](C)[C@H](CC[C@@H]3C[C@@H](O)CC(=O)O3)[C@H]21` [Simvastatin, (+)-(1S,3R,7S,8S,8aR)-1,2,3,7,8,8a-hexahydro-3,7-dimethyl-8-[2-[(2R4R )-tetrahydro-4-hydroxy-6-oxo-2H-pyran-2-yl]ethyl]-1-naphthyl 2,2-dimethylbutanoate], for which, in the data set on blood free fatty acids (RFVb 200 mg/kg), the “Blood FFA Levels … 4 days” value is 93.8; the “Blood FFA Levels … 8 days” value is reported as 99.3; the “Blood FFA Levels … 12 days” value was found to be 97.0. Moreover, in the data set with blood free fatty acids (Tocoph 300 mg/kg), the “Blood FFA Levels … 4 days” value stood at 93.8; the “Blood FFA Levels … 8 days” value stood at 99.3; the “Blood FFA Levels … 12 days” value was 97.0. Further, in the data set on blood free fatty acids (ascorbic acid 500 mg/kg), the “Blood FFA Levels … 4 days” value was found to be 93.8; the “Blood FFA Levels … 8 days” value was found to be 99.3; the “Blood FFA Levels … 12 days” value was 97.0. Further, in the data set on blood total cholesterol, the “Blood Total Cholesterol Levels after administration, 4 days” value is 102.1; the “Blood Total Cholesterol Levels after administration, 8 days” value is recorded as 93.2; the “Blood Total Cholesterol Levels after administration, 12 days” value came to 86.6. Further, in the data set on CPK, the “CPK Levels after administration, 4 days” value was 94.5; the “CPK Levels after administration, 8 days” value amounted to 99.4; the “CPK Levels after administration, 12 days” value is given as 91.0. In the data set with blood lipid peroxides (RFVb 200 mg/kg), the “Blood Lipid Peroxide Levels … 4 days” value turned out to be 96.2; the “Blood Lipid Peroxide Levels … 8 days” value was found to be 86.4; the “Blood Lipid Peroxide Levels … 12 days” value is 91.0. In the data set with blood lipid peroxides (ascorbic acid 500 mg/kg), the “Blood Lipid Peroxide Levels … 4 days” value was 96.2; the “Blood Lipid Peroxide Levels … 8 days” value is reported as 86.4; the “Blood Lipid Peroxide Levels … 12 days” value was determined as 91.0. Further, in the data set with blood lipid peroxides (pantethine 300 mg/kg), the “Blood Lipid Peroxide Levels … 4 days” value is 96.2; the “Blood Lipid Peroxide Levels … 8 days” value is recorded as 86.4; the “Blood Lipid Peroxide Levels … 12 days” value is reported as 91.0. For the same molecule, in the data set with blood lipid peroxides (taurine 1000 mg/kg), the “Blood Lipid Peroxide Levels … 4 days” value was found to be 96.2; the “Blood Lipid Peroxide Levels … 8 days” value is recorded as 86.4; the “Blood Lipid Peroxide Levels … 12 days” value turned out to be 91.0. In the data set on GOT, the “GOT Levels after administration, 4 days” value came to 98.1; the “GOT Levels after administration, 8 days” value is reported as 93.9; the “GOT Levels after administration, 12 days” value is listed as 100.4. Also, in the data set with blood triglycerides (setting [2]), the “Blood Triglyceride Levels … 4 days” value was determined as 97.6; the “Blood Triglyceride Levels … 8 days” value came out at 88.9; the “Blood Triglyceride Levels … 12 days” value worked out at 89.3. In the data set on blood triglycerides (setting [1]), the “Blood Triglyceride Levels … 4 days” value is 96.2; the “Blood Triglyceride Levels … 8 days” value is 86.4; the “Blood Triglyceride Levels … 12 days” value is listed as 91.0. In addition, in the data set on blood triglycerides (setting [3]), the “Blood Triglyceride Levels … 4 days” value worked out at 97.6; the “Blood Triglyceride Levels … 8 days” value is on record as 88.9; the “Blood Triglyceride Levels … 12 days” value stood at 89.3.
For `CCCC(=O)OC[C@@H](OC(=O)CCC)[C@@H](OC(=O)CCC)[C@H](Cn1c2nc(=O)[nH]c(=O)c-2nc2cc(C)c(C)cc21)OC(=O)CCC` [RFVb, riboflavin butyrate], in the data set with blood free fatty acids (RFVb 200 mg/kg), the “Blood FFA Levels … 4 days” value was found to be 97.6; the “Blood FFA Levels … 8 days” value amounted to 101.2; the “Blood FFA Levels … 12 days” value is recorded as 92.9. In the data set with blood lipid peroxides (RFVb 200 mg/kg), the “Blood Lipid Peroxide Levels … 4 days” value was 88.9; the “Blood Lipid Peroxide Levels … 8 days” value is listed as 101.0; the “Blood Lipid Peroxide Levels … 12 days” value is reported as 80.8.
